The source of these data is publication PMC9851200, “Multiparameter phenotypic screening for endogenous TFEB and TFE3 translocation identifies novel chemical series modulating lysosome function” (Autophagy, 2022).

Type in all cases: binding
Assay [1] has as its target T1, kinases (KINOMEscan panel) (Homo sapiens, UniProt Q15835).
T1 sequence (Q15835 1-563): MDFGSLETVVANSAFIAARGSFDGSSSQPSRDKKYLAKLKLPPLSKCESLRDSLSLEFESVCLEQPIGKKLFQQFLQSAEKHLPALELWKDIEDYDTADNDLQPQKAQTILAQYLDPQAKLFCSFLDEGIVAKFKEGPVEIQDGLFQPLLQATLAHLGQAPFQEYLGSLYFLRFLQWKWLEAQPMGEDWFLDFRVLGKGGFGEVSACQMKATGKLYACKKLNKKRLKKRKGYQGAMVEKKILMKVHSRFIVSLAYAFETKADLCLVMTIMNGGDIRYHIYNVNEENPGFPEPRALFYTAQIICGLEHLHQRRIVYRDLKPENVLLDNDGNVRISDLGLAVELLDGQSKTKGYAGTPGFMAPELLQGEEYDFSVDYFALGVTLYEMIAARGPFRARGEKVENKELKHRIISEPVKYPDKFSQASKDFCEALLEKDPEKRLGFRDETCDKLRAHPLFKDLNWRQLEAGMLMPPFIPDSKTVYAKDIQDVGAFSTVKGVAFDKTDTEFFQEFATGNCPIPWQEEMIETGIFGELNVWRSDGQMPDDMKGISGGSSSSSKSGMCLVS
To be noted: NEW KINOMEscan.

Assay [2] addresses kinases (KINOMEscan panel) (Homo sapiens, UniProt Q9BX84). To be noted: TRPM6; NEW KINOMEscan.
In assay [3] the target is T2, kinases (KINOMEscan panel) (Homo sapiens, UniProt Q96PY6).
T2 sequence (Q96PY6 1-1258): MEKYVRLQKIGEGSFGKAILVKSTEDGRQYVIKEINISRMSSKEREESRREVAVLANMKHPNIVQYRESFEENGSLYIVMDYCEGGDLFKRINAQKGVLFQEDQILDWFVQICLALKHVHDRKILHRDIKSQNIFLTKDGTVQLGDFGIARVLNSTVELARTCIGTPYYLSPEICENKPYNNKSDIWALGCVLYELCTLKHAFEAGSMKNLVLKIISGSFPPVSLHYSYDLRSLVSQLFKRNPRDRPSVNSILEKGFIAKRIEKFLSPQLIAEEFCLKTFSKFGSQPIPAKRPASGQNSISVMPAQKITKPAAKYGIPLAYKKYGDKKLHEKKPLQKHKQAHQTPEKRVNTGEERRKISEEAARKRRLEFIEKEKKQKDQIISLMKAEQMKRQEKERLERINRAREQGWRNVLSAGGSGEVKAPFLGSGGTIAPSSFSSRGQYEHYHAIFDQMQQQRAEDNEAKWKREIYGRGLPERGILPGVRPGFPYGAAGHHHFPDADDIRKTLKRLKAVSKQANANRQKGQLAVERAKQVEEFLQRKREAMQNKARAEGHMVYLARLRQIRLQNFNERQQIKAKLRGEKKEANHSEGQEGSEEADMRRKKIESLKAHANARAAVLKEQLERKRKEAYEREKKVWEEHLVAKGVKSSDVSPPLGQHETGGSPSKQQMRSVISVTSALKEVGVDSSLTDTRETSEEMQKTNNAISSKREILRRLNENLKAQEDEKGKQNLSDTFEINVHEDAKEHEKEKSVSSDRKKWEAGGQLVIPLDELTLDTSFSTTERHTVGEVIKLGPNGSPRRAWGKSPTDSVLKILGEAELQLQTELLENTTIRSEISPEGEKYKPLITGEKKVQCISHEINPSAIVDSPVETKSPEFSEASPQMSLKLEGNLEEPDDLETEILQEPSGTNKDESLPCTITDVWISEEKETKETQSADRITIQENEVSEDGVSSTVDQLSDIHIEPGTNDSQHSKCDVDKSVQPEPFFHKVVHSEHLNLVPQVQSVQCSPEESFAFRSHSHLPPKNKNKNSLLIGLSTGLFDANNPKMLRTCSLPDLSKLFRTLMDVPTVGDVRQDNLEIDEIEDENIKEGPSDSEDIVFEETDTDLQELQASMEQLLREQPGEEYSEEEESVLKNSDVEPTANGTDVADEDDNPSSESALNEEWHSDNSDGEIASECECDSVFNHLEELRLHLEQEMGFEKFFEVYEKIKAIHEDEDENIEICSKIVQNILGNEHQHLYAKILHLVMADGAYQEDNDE
To be noted: kinase NEK1; NEW KINOMEscan.

The target of assay [4] is T3, kinases (KINOMEscan panel) (Homo sapiens, UniProt O75385).
T3 sequence (O75385 1-1050): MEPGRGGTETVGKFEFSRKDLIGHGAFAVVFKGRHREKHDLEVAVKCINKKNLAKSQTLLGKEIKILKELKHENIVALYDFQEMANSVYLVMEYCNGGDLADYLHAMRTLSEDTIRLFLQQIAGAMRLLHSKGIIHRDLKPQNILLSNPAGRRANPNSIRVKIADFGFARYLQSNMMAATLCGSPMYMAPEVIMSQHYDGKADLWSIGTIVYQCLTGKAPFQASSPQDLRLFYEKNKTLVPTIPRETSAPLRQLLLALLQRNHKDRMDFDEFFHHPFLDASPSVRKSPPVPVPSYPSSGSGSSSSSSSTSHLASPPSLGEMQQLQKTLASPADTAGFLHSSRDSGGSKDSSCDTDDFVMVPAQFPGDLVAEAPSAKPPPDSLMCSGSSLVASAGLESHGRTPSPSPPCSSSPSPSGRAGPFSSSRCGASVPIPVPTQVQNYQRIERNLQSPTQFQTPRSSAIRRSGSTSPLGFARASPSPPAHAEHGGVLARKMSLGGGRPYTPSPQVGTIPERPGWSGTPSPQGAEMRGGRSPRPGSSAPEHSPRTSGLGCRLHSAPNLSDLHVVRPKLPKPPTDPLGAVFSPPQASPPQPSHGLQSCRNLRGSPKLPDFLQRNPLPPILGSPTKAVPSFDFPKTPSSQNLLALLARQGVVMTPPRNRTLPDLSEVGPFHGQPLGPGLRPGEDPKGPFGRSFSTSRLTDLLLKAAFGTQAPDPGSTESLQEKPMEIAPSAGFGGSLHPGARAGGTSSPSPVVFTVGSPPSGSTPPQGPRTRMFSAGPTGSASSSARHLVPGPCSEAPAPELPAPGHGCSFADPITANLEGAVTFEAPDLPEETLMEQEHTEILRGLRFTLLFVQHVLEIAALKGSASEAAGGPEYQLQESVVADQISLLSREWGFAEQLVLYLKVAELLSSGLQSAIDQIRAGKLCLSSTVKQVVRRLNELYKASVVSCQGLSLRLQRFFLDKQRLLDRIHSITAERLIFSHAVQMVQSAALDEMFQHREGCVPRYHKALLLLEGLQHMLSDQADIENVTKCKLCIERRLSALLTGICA
To be noted: NEW KINOMEscan.

The target of assay [5] is kinases (KINOMEscan panel) (Homo sapiens, UniProt O94921). To be noted: NEW KINOMEscan.
Sequence of kinases (KINOMEscan panel) (Homo sapiens, UniProt O94921) (O94921 whole entry): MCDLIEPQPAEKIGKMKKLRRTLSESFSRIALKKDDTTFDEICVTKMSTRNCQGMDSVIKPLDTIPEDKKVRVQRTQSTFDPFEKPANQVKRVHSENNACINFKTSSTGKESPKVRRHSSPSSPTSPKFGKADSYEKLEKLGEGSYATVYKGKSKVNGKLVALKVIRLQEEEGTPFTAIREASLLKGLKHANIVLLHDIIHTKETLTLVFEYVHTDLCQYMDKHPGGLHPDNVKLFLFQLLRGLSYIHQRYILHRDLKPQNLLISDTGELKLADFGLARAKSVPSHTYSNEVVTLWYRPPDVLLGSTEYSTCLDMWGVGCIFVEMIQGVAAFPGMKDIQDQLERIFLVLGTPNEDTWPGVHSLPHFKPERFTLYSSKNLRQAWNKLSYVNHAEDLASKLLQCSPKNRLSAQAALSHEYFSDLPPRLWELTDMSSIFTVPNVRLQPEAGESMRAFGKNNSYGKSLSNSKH

Sequence of kinases (KINOMEscan panel) (Homo sapiens, UniProt Q9BX84) (Q9BX84 whole entry): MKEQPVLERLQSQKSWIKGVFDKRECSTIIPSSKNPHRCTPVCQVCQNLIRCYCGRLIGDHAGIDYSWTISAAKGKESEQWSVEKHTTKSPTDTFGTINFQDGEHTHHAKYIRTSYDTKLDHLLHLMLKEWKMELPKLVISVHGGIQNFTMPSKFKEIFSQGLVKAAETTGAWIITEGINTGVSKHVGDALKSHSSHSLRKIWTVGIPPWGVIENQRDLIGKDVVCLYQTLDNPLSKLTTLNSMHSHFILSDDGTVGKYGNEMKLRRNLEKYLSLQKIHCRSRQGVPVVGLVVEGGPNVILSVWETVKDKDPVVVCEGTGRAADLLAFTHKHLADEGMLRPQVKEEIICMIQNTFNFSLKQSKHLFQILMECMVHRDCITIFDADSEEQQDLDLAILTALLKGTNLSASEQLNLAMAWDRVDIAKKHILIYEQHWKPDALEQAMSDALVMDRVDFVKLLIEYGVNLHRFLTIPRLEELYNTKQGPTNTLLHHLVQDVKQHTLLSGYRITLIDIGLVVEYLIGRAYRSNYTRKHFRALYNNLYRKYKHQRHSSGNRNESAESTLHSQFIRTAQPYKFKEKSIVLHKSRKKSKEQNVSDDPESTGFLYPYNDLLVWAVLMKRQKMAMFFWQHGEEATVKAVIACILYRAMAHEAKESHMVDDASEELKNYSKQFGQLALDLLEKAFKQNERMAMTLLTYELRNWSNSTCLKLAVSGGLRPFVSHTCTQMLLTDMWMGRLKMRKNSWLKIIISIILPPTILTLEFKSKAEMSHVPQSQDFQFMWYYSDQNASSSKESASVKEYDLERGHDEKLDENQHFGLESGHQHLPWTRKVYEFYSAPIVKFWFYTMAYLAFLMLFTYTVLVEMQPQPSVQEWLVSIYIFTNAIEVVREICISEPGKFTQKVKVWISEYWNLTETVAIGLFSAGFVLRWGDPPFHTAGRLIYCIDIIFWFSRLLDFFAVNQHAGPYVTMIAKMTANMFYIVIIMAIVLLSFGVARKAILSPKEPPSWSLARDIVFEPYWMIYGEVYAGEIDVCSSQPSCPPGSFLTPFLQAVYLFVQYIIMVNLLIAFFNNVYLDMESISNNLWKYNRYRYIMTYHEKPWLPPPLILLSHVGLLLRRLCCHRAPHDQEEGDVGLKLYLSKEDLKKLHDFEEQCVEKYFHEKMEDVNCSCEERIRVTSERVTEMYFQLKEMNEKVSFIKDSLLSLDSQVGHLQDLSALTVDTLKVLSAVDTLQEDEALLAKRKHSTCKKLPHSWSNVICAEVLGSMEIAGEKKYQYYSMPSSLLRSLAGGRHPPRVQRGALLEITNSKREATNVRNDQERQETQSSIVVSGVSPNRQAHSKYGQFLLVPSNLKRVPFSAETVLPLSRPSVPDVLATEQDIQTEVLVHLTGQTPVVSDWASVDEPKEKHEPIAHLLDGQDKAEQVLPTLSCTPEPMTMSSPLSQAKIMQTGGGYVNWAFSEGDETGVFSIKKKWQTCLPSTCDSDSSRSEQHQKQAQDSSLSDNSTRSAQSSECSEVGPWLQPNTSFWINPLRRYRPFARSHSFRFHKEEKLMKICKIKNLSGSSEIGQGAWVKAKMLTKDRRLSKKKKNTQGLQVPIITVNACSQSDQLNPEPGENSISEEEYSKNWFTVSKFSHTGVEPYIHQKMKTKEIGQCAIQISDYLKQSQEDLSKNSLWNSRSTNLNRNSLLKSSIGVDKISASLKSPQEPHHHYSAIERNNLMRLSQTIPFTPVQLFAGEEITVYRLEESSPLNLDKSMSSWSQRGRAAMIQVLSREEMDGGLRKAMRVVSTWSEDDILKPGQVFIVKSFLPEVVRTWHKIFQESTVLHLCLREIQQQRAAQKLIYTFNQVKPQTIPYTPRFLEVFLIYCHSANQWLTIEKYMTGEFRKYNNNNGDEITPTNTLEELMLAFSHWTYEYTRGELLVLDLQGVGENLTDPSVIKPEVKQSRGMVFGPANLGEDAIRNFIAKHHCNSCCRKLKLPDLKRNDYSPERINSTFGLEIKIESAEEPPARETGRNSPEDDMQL

In the case of `Cc1cccc(-c2nc(Nc3ccc4nn(C)cc4c3)c3ccccc3n2)n1` [NK167], the “KINOMEscan GRK1” value in assay [1] is 37. The “KINOMEscan TRPM6” value in assay [2] was 0. The “KINOMEscan NEK1” value in assay [3] is reported as 0. Moreover, the “KINOMEscan ULK1” value in assay [4] is listed as 8. In assay [5], the “KINOMEscan CDK14” value is on record as 17.
As for `Cc1cccc(-c2nc(N(C)c3ccc4ncsc4c3)c3ccccc3n2)n1` [NK-161], the “KINOMEscan GRK1” value in assay [1] was determined as 25. In addition, the “KINOMEscan TRPM6” value in assay [2] was found to be 0. Moreover, the “KINOMEscan NEK1” value in assay [3] was determined as 0. The “KINOMEscan ULK1” value in assay [4] came out at 18. Besides, the “KINOMEscan CDK14” value in assay [5] was 0.
